Data as given in patent publication US20070025939A1, “cosmetic compositions containing hydroquinone and various sunscreen agents” (L'Oreal S.A., priority 2005, published 2007).

Legend:
Format in all cases: physicochemical
[1] = Discoloration of 1% hydroquinone solutions in SDA 40-2 ethanol with 0.1% stabilizer after storage; conditions: hydroquinone 1% w/w in 200-proof ethanol SDA grade 40-2, 0.1% w/w stabilizer, glass vials, 4 weeks at 45° C., FIG. 1
Procedure: FIG. 1 is a photograph of containers of various compositions, each comprising 1% hydroquinone, 0.1% of various stabilizers, in a vehicle of SDA grade 40-2 ethanol. Solutions of hydroquinone (1% w/w), in 200-proof ethanol (SDA grade 40-2, which includes brucine sulfate as a denaturant) with 0.1% w/w of various compounds, namely BHT, benzophenone-3, ascorbic acid, Tinogard HS, Tinogard TT, Tinogard Q, benzophenone-4, Tinogard TT DD and ascorbyl glucoside were prepared, and then stored in glass vials for 4 weeks at 45° C. The results of the experiments are illustrated in FIG. 1.

[2] = Discoloration of hydroquinone solutions with stabilizer in various solvents after storage; conditions: hydroquinone solutions in various solvents (ethanol absolute, 40-B, 40-2, 3A), glass vials, four weeks at 45° C., FIGS. 2A-D
Procedure: FIGS. 2A-D are photographs of containers of various compositions, each comprising 0.1% benzophenone-4 in 100 ml of various solvents, after storage for four weeks at 45° C. In another set of experiments, solutions containing […] in various solvents (as shown below) were prepared, and then stored in glass vials for four weeks at 45° C.

[3] = Discoloration of compositions associated with oxidation of hydroquinone (general statement); conditions: compositions containing hydroquinone

| SMILES | discoloration of the solution [1] | discoloration of the solutions [2] | discoloration of compositions associated with oxidation of hydroquinone [3] |
| --- | --- | --- | --- |
| COc1cc(O)c(C(=O)c2ccccc2)cc1S(=O)(=O)O [benzophenone-4, 5-Benzoyl-4-Hydroxy-2-Methoxybenzene Sulfonic Acid] | substantially no discoloration | substantially no discoloration | inhibit or reduce discoloration |
| CC1(C)C2CCC1(CS(=O)(=O)O)C(=O)/C2=C/c1ccc(/C=C2/C(=O)C3(CS(=O)(=O)O)CCC2C3(C)C)cc1 [Mexoryl SX, tetraphthalylidene dicamphor sulfonic acid] | – | substantially no discoloration | inhibit or reduce discoloration |
